Counter-ions that a name gives are not always drawn. One block for each molecule: values may come before it.
What was measured:
[1] = system: L. major FV1 promastigotes; assay: Anti-promastigote activity (MTS assay), L. major FV1; assay type: cell-based; conditions: 72 hours
Outline: (§1)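 Promastigotes (1×10^5 per well) in Schneider's medium pH 6.9 with 10% FBS, exposed to serial compound concentrations for 72 h at 27 °C. Viability by MTS/PMS reduction over 4 h, OD 490 nm; IC50 derived.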

[2] = system: L. donovani Ld39 promastigotes; assay: Anti-promastigote activity (MTS assay), L. donovani Ld39; assay type: cell-based; conditions: 72 hours
Outline: as §1

[3] = system: L. donovani HU3 amastigotes; assay: Anti-amastigote activity in infected PEM, L. donovani HU3; assay type: cell-based; conditions: infected PEM, 3 days, Giemsa, SSG-sensitive
Outline: (§2)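 Readout was Giemsa counts of amastigotes per 100 macrophages and percentage infected, from which IC50 values were calculated. Treatment lasted 3 days at 37° C. It followed overnight or 24 hr infection of mouse elicited peritoneal macrophages with late-log promastigotes at a 20:1 parasite ratio.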

[4] = system: L. donovani Ld39 amastigotes (SSG-resistant); assay: Anti-amastigote activity in infected PEM, L. donovani Ld39; assay type: cell-based; conditions: Leishmania donovani, 72 h; infected PEM, 3 days, Giemsa; SSG-resistant
Outline: as §2

[5] = system: amastigotes (L. amazonensis LV78, L. braziliensis UA847, L. donovani HU3, L. donovani 39); assay: Anti-amastigote activity, strain not given; assay type: cell-based; conditions: strain not specified; visceral and cutaneous Leishmania; read-out: IC50 against amastigotes
Procedure: (§3) Mouse peritoneal elicited macrophages (PEM) were obtained as previously described (2). A round cover slip (12 mm in diameter) was placed into each well of 24-well culture plate. Mouse PEM were resuspended in supplemented DMEM media containing 10% heat inactivated FBS (v/v), 100 U/mL penicillin and 100 μg/mL streptomycin and seeded into each well at a cell density of 1×10^5 cells per 500 μL. Macrophages were allowed to attach overnight. Non-adherent cells were removed by gentle washing with un-supplemented DMEM media twice. Adherent macrophages were infected with late-log promastigotes at a parasite-to-macrophage ratio of 20:1 overnight at 37° C. with 5% CO2. Non-internalized promastigotes were removed by washing twice with un-supplemented DMEM media. Infected macrophages were further incubated in 500 μL of supplemented DMEM media in the presence or absence of FM for 72 hours at 37° C. After incubation, cover slips were stained with Giemsa and the percentage of macrophages infected and number of amastigotes per 100 macrophages was enumerated.
(§4) PEM cells were infected with late-log promastigotes (L. amazonensis LV78, L. braziliensis UA847, L. donovani HU3, L. donovani 39) for 24 hr at 37° C. Infected macrophages were then treated with various antileishmanials and incubated for 3 days at 37° C. After 3 days, the cover slips were stained with Giemsa. The number of amastigotes per 100 macrophages were determined and used to calculate IC50 values.

[6] = Preliminary oral bioavailability, single time point plasma concentration oral vs i.v.; assay type: in vivo, Balb/c mice; conditions: hydrochloride salt in saline, 30 minutes, dose-normalized
Procedure: FM01.HCl and FM05.HCl were administered to Balb/c mice via intravenous and passive oral administration. The blood plasma was collected at 30 minutes for LC-MSMS analysis and used for preliminary oral bioavailability screening. The corresponding plasma concentration was normalized by the administered dose for oral bioavailability calculation.
FM01 and FM05 hydrochloride salt was dissolved in saline and administered to Balb/c mice either orally or i.v. Plasma level of FM01 and FM05 was determined 30 minutes later by LC-MS and their identity confirmed by LC-MS/MS. Plasma concentration from oral feeding was divided by that obtained from i.v. administration. […] In these preliminary studies, the ratios were 45% for FM01 and 64% for FM05 (FIG. 3).

[7] = system: L. braziliensis UA847 amastigotes; assay: Anti-amastigote activity in infected PEM, L. braziliensis UA847; assay type: cell-based; conditions: Leishmania braziliensis, 72 h, 3 days, Giemsa, read-out: Anti-amastigote activity IC50, L. baziliensis UA847
Procedure: as §3, §4

[8] = system: L. amazonensis LV78 promastigotes; assay: Anti-promastigote activity (MTS assay), L. amazonensis LV78; assay type: cell-based; conditions: 72 hours
Outline: as §1

[9] = system: promastigotes (L. amazonensis LV78, L major FV1, L. donovani HU3, L. donovani 39); assay: Anti-promastigote activity, strain not given; assay type: cell-based; conditions: Leishmania amazonensis; strain not specified; read-out: IC50 against promastigotes
Procedure: Anti-promastigote activity was determined according to previous procedures (1) by Cell Titer 96® Aqueous Assay (Promega) that employed a tetrazolium compound. Promastigotes were seeded into 96-well flat bottom microtiter plate at 1×10^5 cells per well in a final volume of 100 μL medium and incubated with a series of concentrations of synthetic FM. Parasites were incubated at 27° C. for 72 hours. After 72 hours of incubation, 10 μL of MTS:PMS mixture [MTS:2-(4,5-Dimethylthiazol-2-yl-)-5-[3-(carboxymethoxy)phenyl]-2-(4-sulfophenyl)-2H-tetrazolium); PMS: phenazine methosulfate both purchased from Sigma] was added into each well of microtiter plate. The plate was then incubated at 27° C. for 4 hours for color development. After 4 hours of incubation, the OD values were determined at 490 nm using automatic microtiter plate reader (Bio-Rad).
(§5) IC50 values of known antileishmanials and the amine-containing flavonoid monomers of the present invention to promastigotes (L. amazonensis LV78, L major FV1, L. donovani HU3, L. donovani 39), macrophages (Raw 264.7 and PEM) and mouse fibroblast (L929) were determined. The anti-promastigotes activities and cytotoxicity of the amine-containing flavonoid monomers of the invention are shown in Table 1.

[10] = Cytotoxicity, L929 fibroblasts; assay type: cell-based, mouse; conditions: mouse
Procedure: as §5

[11] = system: L. donovani HU3 promastigotes; assay: Anti-promastigote activity (MTS assay), L. donovani HU3; assay type: cell-based; conditions: 72 hours
Outline: as §1

[12] = system: L. amazonensis LV78 amastigotes; assay: Anti-amastigote activity in infected PEM, L. amazonensis LV78; assay type: cell-based; conditions: for IC50: infected PEM, 3 days, Giemsa
Outline: as §2

[13] = system: peritoneal elicited macrophages (PEM); assay: Cytotoxicity, peritoneal elicited macrophages (PEM); assay type: cell-based, mouse
[14] = system: mouse fibroblast (L929); assay: Cytotoxicity, L929 fibroblasts; assay type: cell-based; conditions: mouse fibroblast L929
Procedure: as §5

- IC50 ([1]; Leishmania major): 5.6 ± 1 µM
- IC50 ([3]; Leishmania donovani, 72 h): > 9000 nM
- IC50 [5]: < 5 µM
- Ratio of plasma concentration from oral feeding to i.v. administration [6]: 45%
- IC50 [7]: 8.4 µM
- IC50 ([8]; Leishmania amazonensis): 6 ± 1.8 µM
- IC50 [9]: < 5 µM
- IC50 ([11]; Leishmania donovani): 1200 ± 300 nM
- IC50 ([12]; Leishmania amazonensis, 72 h): 1800 ± 600 nM
SMILES: O=c1cc(-c2ccc(OCCN3CCN(Cc4ccncc4)CC3)cc2)oc2ccccc12 [FM01, 2-(4-(2-(4-(pyridin-4-ylmethyl)piperazin-1-yl)ethoxy)phenyl)-4H-chromen-4-one]
- IC50 ([2]; Leishmania donovani): 700 ± 100 nM
- IC50 [4]: > 10 µM
- IC50 [10]: > 33 µM
- Selective index (a)/(b) ([12]; IC50 RAW264.7 over IC50 L. amazonensis LV78 amastigotes): 28.8

- IC50 [1]: 6.7 ± 1.9 µM
- IC50 [8]: 12.6 ± 0.9 µM
- IC50 [12]: > 9000 nM
SMILES: O=c1cc(-c2ccc(OCCN3CCN(Cc4ccncc4)CC3)cc2)oc2ccccc12 [FM01.HCl]
- IC50 [2]: 1300 ± 300 nM
- IC50 [13]: 55.9 µM
- IC50 [14]: 33.7 µM

- IC50 [3]: 500 ± 20 nM
- IC50 [8]: 0.77 ± 0.19 µM
- IC50 [11]: 990 ± 190 nM
- IC50 [12]: 350 ± 10 nM
SMILES: COc1ccnc(CN(CCOCCOc2ccc(-c3cc(=O)c4ccccc4o3)cc2)Cc2nccc(OC)c2OC)c1OC [FM09aHCl]
- IC50 [14]: 12.9 ± 2.4 µM

From patent publication US10111854B2, “Synthesis and use of amine-containing flavonoids as potent anti-leishmanial agents” (The Hong Kong Polytechnic University, priority 2014, dated 2018)
